Values of other authors in patent publication US12496345B2, “Method of treating cancer” (Intensity Therapeutics, Inc., priority 2012, dated 2025).

Experiments:
[1] = not given; remark: listed apart in the source
[2] = not given; remark: listed apart in the source

Row | oral absorption ([2]; in vivo, po) | SMILES | soluble in water | pH of a 1% solution [1] | oral bioavailability ([2]; carboplatin alone, highly variable)
1 |  | N.N.O=C([O-])C1(C(=O)[O-])CCC1.[Pt+2] [Carboplatin, platinum, diammine [1,1-cyclobutane-dicarboxylato (2−)-0,0′]-(SP-4-2)] | approximately 14 mg/mL | 5-7 | approximately 4%
2 | not orally absorbed | O=c1[nH]cc(F)c(=O)[nH]1 [5-FU, fluorouracil] |  |  | 
